This experiment deals with collagen 1 (COL1). Description: WI-38 collagen 1 inhibition assay. The class given is cell-based, human. Particulars: Cellular EC50, WI-38 cells; values are classes of LogEC50. A digest of the protocol: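 WI-38 fibroblasts serum-starved (0.25% FBS 2 h, then none 24 h), then given a collagen induction cocktail together with compound. Cells fixed, immunostained for collagen I with DAPI counterstain, and imaged at 20×; per-cell fluorescence quantified by image analysis.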

Take `O=C(Nc1nc(-c2ccccc2Cl)cs1)c1ccc(N2CCN3CCCC3C2)cn1` (stereo not shown) [compound 461, N-(4-(2-chlorophenyl)thiazol-2-yl)-5-(hexahydropyrrolo[1,2-a]pyrazin-2(1H)-yl)picolinamide]: the “COL1 Efficacy (LogEC50)” value is “+++ (+++: <−6)”.
Take `COc1ccc(C(=O)Nc2nc(-c3cnccc3C)cs2)cc1` [Compound 333, 4-methoxy-N-[4-(4-methyl-3-pyridyl)thiazol-2-yl]benzamide]: the “COL1 Efficacy (LogEC50)” value is on record as “++ (++: −5 to −6)”.
In the case of `Cc1ccc(C(=O)Nc2nc(-c3cnn(C)c3)cs2)cn1` [Compound 317, 6-methyl-N-[4-(1-methylpyrazol-4-yl)thiazol-2-yl]pyridine-3-carboxamide] it was “+ (+: >−5)”.
The value for `CS(=O)(=O)N1CCN(C2CCC(C(=O)Nc3nc(-c4ccccc4Cl)cs3)CC2)CC1` (single isomer, unassigned) [Compound 434, (1s,4s)-N-(4-(2-chlorophenyl)thiazol-2-yl)-4-(4-(methylsulfonyl)piperazin-1-yl)cyclohexane-1-carboxamide] was “+ (+: >−5)”; that for `COc1ccc(C(=O)Nc2nc(-c3cccnc3C)cs2)cc1` [Compound 343, 4-methoxy-N-[4-(2-methyl-3-pyridyl)thiazol-2-yl]benzamide] was “+++ (+++: <−6)”; that for `Cc1ccc(C(=O)Nc2nc(-c3ccccc3Cl)cs2)nc1` [compound 329, N-[4-(2-chlorophenyl)thiazol-2-yl]-5-methyl-pyridine-2-carboxamide] was “++ (++: −5 to −6)”.
In the case of `O=C(Nc1nc(-c2ccccc2Cl)cs1)c1ccc(C2CCS(=O)(=O)CC2)cn1` [Compound 383, N-(4-(2-chlorophenyl)thiazol-2-yl)-5-(1,1-dioxidotetrahydro-2H-thiopyran-4-yl)picolinamide] it was “+++ (+++: <−6)”; in that of `CC(=O)NCc1ccccc1-c1csc(NC(=O)c2ccc(N3CCN(S(C)(=O)=O)CC3)cn2)n1` [compound 480], “− (−: inactive)”.
As to `O=C(Nc1nc(-c2ccccc2Cl)cs1)c1ccc(N2CCOCC2)cn1` [compound 339, N-[4-(2-chlorophenyl)thiazol-2-yl]-5-morpholino-pyridine-2-carboxamide], the “COL1 Efficacy (LogEC50)” value was “+++ (+++: <−6)”.
The value for `O=C(Nc1nc(-c2ccccc2Cl)cs1)c1ccc(C2CCS(=O)(=O)CC2)cc1` [compound 382, N-(4-(2-chlorophenyl)thiazol-2-yl)-4-(1,1-dioxidotetrahydro-2H-thiopyran-4-yl)benzamide] was “+++ (+++: <−6)”; that for `COc1ccccc1-c1csc(NC(=O)c2ccc(N3CCOCC3)cc2)n1` [compound 351, N-[4-(2-methoxyphenyl)thiazol-2-yl]-4-morpholino-benzamide] was “+++ (+++: <−6)”; that for `COCCC(=O)N1CCN(c2ccc(C(=O)Nc3nc(-c4ccccc4Cl)cs3)cc2)CC1` [Compound 376, N-(4-(2-chlorophenyl)thiazol-2-yl)-4-(4-(3-methoxypropanoyl)piperazin-1-yl)benzamide] was “+++ (+++: <−6)”.
Take `O=C(Nc1nc(-c2cc(Cl)sc2Cl)cs1)c1ccccc1` [compound 312]: the “COL1 Efficacy (LogEC50)” value is listed as “++ (++: −5 to −6)”.
The value for `Cc1ccc(C(=O)Nc2nc(-c3cncnc3)cs2)cn1` [Compound 340, 6-methyl-N-(4-pyrimidin-5-ylthiazol-2-yl)pyridine-3-carboxamide] was “+++ (+++: <−6)”; that for `O=C(Nc1nc(-c2cccnc2)cs1)c1ccc(N2CCOCC2)cc1` [compound 352, 4-morpholino-N-[4-(3-pyridyl)thiazol-2-yl]benzamide] was “+ (+: >−5)”.
In the case of `O=C(Nc1nc(-c2ccccc2Cl)cs1)c1ccc(N2CCN(C(=O)CCO)CC2)cn1` [Compound 455, N-(4-(2-chlorophenyl)thiazol-2-yl)-5-(4-(3-hydroxypropanoyl)piperazin-1-yl)picolinamide] it was “+++ (+++: <−6)”.

(Values after US20230212131A1, “COLLAGEN 1 TRANSLATION INHIBITORS AND METHODS OF USE THEREOF” (Anima Biotech Inc., priority 2020, published 2023).)
